In paper PMC6717000 (Biosensors & bioelectronics, 2019):

Tested on: Acid phosphatase from potato (AcP)
Experiment: phenolCEST MRI of released phenol, initial velocity over […] min
Format: biochemical, Solanum tuberosum
Conditions: pH 5.0, 37 °C, 10 mM acetate buffer, 10 mM Mg2+

O=P(O)(O)Oc1ccccc1 [PP, phenyl phosphate]
Km: 3.5 mM
